Test results from publication PMC4962298 (Research in Pharmaceutical Sciences, 2016).
One block for each molecule: values may come before it.

Legend:
[1] = system: P-gp expression in Caco-2 cells; assay: Western blot analysis of P-gp expression; format: cell-based; settings: 48 h
[2] = system: intestinal P-gp-mediated digoxin transport; assay: In situ rat single-pass intestinal perfusion; format: in vivo; settings: for increase of digoxin Peff relative to digoxin alone: rat SPIP
[3] = 1 μM drug, not statistically significant

Compound: Cc1ccc(S(=O)(=O)NC(=O)NN2CC3CCCC3C2)cc1 (stereo not drawn) [gliclazide]
P-gp protein levels (P-gp/β-actin) relative to the untreated control ([1]; 500 μM drug): decreased
increase of digoxin Peff relative to digoxin alone ([2]; 0.1 μM drug, significant): about 59%
increase of digoxin Peff relative to digoxin alone ([2]; 10 μM drug, significant): ~76%
increase of digoxin Peff relative to digoxin alone ([2]; 500 μM drug, significant): ~153%

Compound: CCc1ccc(CCOc2ccc(CC3SC(=O)NC3=O)cc2)nc1 (stereo not drawn) [pioglitazone]
P-gp protein levels (P-gp/β-actin) relative to the untreated control ([1]; 300 μM drug): decreased
increase of digoxin Peff relative to digoxin alone [2, 3]: about 38%
increase of digoxin Peff relative to digoxin alone ([2]; 300 μM drug, P < 0.01): ~100%

Peff of digoxin (20 μM) alone ([2]; rat jejunum SPIP, digoxin 20 μM, no inhibitor, n = 3, mean ± SD): 3.4 ± 0.8 × 10^-5cm/s
Compound: C[C@H]1O[C@@H](O[C@H]2[C@@H](O)C[C@H](O[C@H]3[C@@H](O)C[C@H](O[C@H]4CC[C@@]5(C)[C@H](CC[C@@H]6[C@@H]5C[C@@H](O)[C@]5(C)[C@@H](C7=CC(=O)OC7)CC[C@]65O)C4)O[C@@H]3C)O[C@@H]2C)C[C@H](O)[C@@H]1O [digoxin]

Compound: CN(C)C(=N)N=C(N)N [metformin]
P-gp protein levels (P-gp/β-actin) relative to the untreated control ([1]; 7000 μM drug): decreased
increase of digoxin Peff relative to digoxin alone [2, 3]: about 44%
increase of digoxin Peff relative to digoxin alone ([2]; 100 μM drug, P < 0.01): 117.6%
increase of digoxin Peff relative to digoxin alone ([2]; 7000 μM drug, P < 0.01): 167.6%
